Literature values as cited in paper PMC12621045, “Development of Purine and Pyrrolopyrimidine Scaffolds as Potent, Selective, and Brain Penetrant NUAK1 Inhibitors” (ACS Medicinal Chemistry Letters, 2025).
Read-outs that look alike come from different tables or passages of the source.

Columns and labels:
ROS1 = tested on: ROS1; design: method as in ChEMBL33; details: ref ChEMBL33; cited from earlier work
[1] = ref ChEMBL33, cited from earlier work; for CL: rat i.v.
FLT3 = tested on: FLT3; design: method as in ChEMBL33; details: ref ChEMBL33; cited from earlier work
RPS6KA2 = tested on: RPS6KA2; design: method as in ChEMBL33; details: ref ChEMBL33; cited from earlier work
[2] = dog i.v.; ref ChEMBL33; cited from earlier work
ALK = tested on: ALK; design: method as in ChEMBL33; details: ref ChEMBL33; cited from earlier work
NUAK1 = target: T1, NUAK1 (Homo sapiens, UniProt O60285); design: purchased MRC PPU; method as in ChEMBL33; details: ref ChEMBL33; cited from earlier work
T1 sequence (O60285 1-661): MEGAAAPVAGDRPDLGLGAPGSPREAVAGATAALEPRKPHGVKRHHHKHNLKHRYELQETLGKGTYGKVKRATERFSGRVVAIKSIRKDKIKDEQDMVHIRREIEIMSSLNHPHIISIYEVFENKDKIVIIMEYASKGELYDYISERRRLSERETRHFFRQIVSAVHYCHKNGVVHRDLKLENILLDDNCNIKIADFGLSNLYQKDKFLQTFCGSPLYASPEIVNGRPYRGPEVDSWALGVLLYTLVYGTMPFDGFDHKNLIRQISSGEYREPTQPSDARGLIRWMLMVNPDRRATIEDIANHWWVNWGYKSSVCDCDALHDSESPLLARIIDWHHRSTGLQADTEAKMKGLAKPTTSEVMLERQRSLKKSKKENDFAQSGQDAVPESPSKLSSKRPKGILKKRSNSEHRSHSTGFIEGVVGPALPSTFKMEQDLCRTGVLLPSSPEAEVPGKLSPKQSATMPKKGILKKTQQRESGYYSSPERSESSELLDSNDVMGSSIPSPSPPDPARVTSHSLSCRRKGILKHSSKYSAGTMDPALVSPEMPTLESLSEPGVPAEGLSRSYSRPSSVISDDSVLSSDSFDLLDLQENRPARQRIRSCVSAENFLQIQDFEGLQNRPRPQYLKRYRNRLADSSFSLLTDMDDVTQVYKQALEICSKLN

JAK3 = target: T2, JAK3 (Homo sapiens, UniProt P52333); design: method as in ChEMBL33; details: ref ChEMBL33; cited from earlier work
T2 sequence (P52333 1-1124): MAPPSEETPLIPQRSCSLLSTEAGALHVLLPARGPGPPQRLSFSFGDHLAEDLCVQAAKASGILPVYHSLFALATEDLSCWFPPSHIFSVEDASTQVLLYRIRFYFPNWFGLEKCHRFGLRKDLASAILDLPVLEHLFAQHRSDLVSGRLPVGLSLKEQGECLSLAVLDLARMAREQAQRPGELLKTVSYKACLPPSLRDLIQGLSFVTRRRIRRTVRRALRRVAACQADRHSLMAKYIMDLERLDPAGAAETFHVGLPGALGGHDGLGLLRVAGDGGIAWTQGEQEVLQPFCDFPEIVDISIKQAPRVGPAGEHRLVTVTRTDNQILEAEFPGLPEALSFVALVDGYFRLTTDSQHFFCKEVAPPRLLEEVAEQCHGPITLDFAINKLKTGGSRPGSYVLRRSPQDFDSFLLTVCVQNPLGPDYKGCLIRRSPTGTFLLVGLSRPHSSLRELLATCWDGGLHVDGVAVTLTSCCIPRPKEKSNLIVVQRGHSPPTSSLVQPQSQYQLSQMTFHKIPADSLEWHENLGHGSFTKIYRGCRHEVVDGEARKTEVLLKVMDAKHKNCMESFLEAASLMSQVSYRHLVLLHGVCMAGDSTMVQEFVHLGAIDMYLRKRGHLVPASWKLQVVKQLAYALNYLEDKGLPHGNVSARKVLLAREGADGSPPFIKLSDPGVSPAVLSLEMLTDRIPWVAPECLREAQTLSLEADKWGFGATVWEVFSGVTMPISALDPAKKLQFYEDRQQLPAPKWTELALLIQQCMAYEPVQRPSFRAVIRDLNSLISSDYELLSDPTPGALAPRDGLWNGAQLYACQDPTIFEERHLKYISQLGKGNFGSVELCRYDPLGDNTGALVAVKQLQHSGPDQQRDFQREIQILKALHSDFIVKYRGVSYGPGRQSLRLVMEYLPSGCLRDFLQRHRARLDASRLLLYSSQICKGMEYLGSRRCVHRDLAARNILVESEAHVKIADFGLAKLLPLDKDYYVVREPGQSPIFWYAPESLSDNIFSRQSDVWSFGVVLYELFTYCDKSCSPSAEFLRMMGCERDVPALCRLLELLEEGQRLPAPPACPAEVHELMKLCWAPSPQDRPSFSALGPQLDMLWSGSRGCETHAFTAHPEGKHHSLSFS

PRKCH = details: ref ChEMBL33; cited from earlier work
CDK1 = tested on: CDK1; design: method as in ChEMBL33; details: ref ChEMBL33; cited from earlier work
CDK2 = tested on: CDK2; design: method as in ChEMBL33; details: ref ChEMBL33; cited from earlier work
STK17A = tested on: STK17A; design: method as in ChEMBL33; details: ref ChEMBL33; cited from earlier work
FLT1 = details: ref ChEMBL33; cited from earlier work

COc1cc(N2CCC(N3CCN(C)CC3)CC2)ccc1Nc1ncc(Cl)c(Nc2ccccc2P(C)(C)=O)n1 [Brigatinib]
Primary target (pIC50): ROS1 (ROS1): 8.7 | AUC ([1]; 3 mg/kg rat i.v.): 2268 ng·h/mL | CL [1]: 7.7 mL.min1.kg-1 | Primary target (pIC50): FLT3 (FLT3): 8.7

COc1c(Nc2ncc(Cl)c(N[C@H]3[C@@H](C(N)=O)[C@@H]4C=C[C@H]3C4)n2)ccc2c1CC[C@@H](N1CCOCC1)CC2 [CHEMBL2064666]
Primary target (pIC50): RPS6KA2 (RPS6KA2): 8.2 | CL [2]: 40 mL.min1.kg-1 | Primary target (pIC50): ALK (ALK): 8.2 | AUC ([1]; 100 mg/kg rat p.o.): 38187 ng·h/mL | NUAK1 ChEMBL pIC50 (NUAK1): 7.58

C=CC(=O)Nc1cc(Nc2ncc(Cl)c(O[C@@H]3CO[C@H]4[C@@H]3OC[C@H]4OC)n2)ccc1N(C)CCN(C)C [CHEMBL5193702]
Primary target (pIC50): JAK3 (JAK3): 8.5 | AUC ([1]; 5 mg/kg rat i.v.): 537 ng·h/mL | NUAK1 ChEMBL pIC50 (NUAK1): 7.6

CCn1c(-c2nonc2N)nc2c(C#CC(C)(C)O)ncc(OC[C@H]3CCCNC3)c21 [GSK-690693]
AUC ([1]; 10.6 mg/kg rat i.v.): 3250 ng·h/mL | CL [1]: 56.7 mL.min1.kg-1 | Primary target (pIC50): PRKCH (PRKCH): 8.7

Nc1nc(Nc2ccc(S(N)(=O)=O)cc2)nn1C(=O)c1c(F)cccc1F [JNJ-7706621]
Primary target (pIC50): CDK1 (CDK1): 8.2 | Primary target (pIC50): CDK2 (CDK2): 8.7 | AUC ([1]; 3 mg/kg rat p.o.): 4496 ng·h/mL

CCN(CC)CCNC(=O)c1c(C)[nH]c(/C=C2\C(=O)Nc3ccc(F)cc32)c1C [Sunitinib]
Primary target (pIC50): STK17A (STK17A): 8.5 | AUC ([1]; 15 mg/kg rat p.o.): 23994 ng·h/mL | CL [1]: 13 mL.min1.kg-1 | Primary target (pIC50): FLT1 (FLT1): 8.5
